Some test systems named below: RPMI-8226 leukemia; SK-MEL-28 melanoma; MDA-MB-231 breast; CCRF-CEM leukemia; EKVX NSCLC; T-47D breast; A549 NSCLC; SF-539 CNS; ACHN renal; TK-10 renal.
Common to all, as to assay: NCI tumour cell line growth inhibition, 48 h

“And” between values parts separate entries of the source, which are not always exact repeats. Equal values may be shown once.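 Step 1: Grow cells in 96-well plates. Step 2: Expose to compound for 48 hours at 5 concentrations. Step 3: Interpolate endpoints linearly; if unreached, use highest concentration. At the GI50, growth is halved. TGI: total growth inhibition.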

Consider `NC(=O)c1csc(C2OC(CO)C(O)C2O)n1` (stereo not given), for which the GI50 was more than 20.1 µM in the assay with RPMI-8226 leukemia; > 80.6 µM and 17.2 µM with SK-MEL-28 melanoma; more than 73.8 µM in the assay on MDA-MB-231 breast; 15.6 µM in the assay with CCRF-CEM leukemia; 130 µM in the assay with A549 NSCLC; 47.9 µM with SF-539 CNS. Besides, the GI50 in the assay with ACHN renal is 54.5 µM; with TK-10 renal, more than 74.5 µM. Also, the TGI was 8150 µM with RPMI-8226 leukemia; 1690 µM with SK-MEL-28 melanoma; more than 6480 µM in the assay with MDA-MB-231 breast; 5940 µM in the assay with EKVX NSCLC; more than 5620 µM with T-47D breast; more than 10000 µM with A549 NSCLC. The results for the TGI with SF-539 CNS, in the assay with ACHN renal and in the assay with TK-10 renal were 3590 µM, more than 10000 µM and more than 10000 µM, respectively.
As for `O=C(O)CN1CCN(CC(=O)O)CC(=O)[O][Hg][O]C(=O)C1`, the GI50 was 18.2 µM in the assay on RPMI-8226 leukemia; 19.2 µM in the assay with SK-MEL-28 melanoma; 19.6 µM in the assay on MDA-MB-231 breast; 3.96 µM in the assay with CCRF-CEM leukemia; 21 µM in the assay on EKVX NSCLC; 17 µM in the assay with T-47D breast. Also, the GI50 was more than 100 µM in the assay with A549 NSCLC, 60.1 µM in the assay on SF-539 CNS, 19.6 µM in the assay on ACHN renal and 16 µM with TK-10 renal. The TGI worked out at 50.5 µM in the assay on RPMI-8226 leukemia; 34.8 µM in the assay with SK-MEL-28 melanoma; 35.3 µM with MDA-MB-231 breast; 32 µM in the assay on CCRF-CEM leukemia; 41.5 µM in the assay with EKVX NSCLC; 43.2 µM with T-47D breast. Further, the TGI with A549 NSCLC is more than 100 µM; in the assay with SF-539 CNS, more than 100 µM; in the assay with ACHN renal, 34.2 µM; in the assay with TK-10 renal it was 29.5 µM.
Consider `Nc1nc(OCc2ccccc2)c2[nH]cnc2n1`, for which the GI50 is 50 µM and 21.6 µM in the assay on RPMI-8226 leukemia; 46.7 µM and 62.9 µM in the assay on SK-MEL-28 melanoma; 36.5 µM and 31.5 µM in the assay on MDA-MB-231 breast; 39.5 µM in the assay with CCRF-CEM leukemia; 64.1 µM and 32.3 µM in the assay on EKVX NSCLC; 24.9 µM and 23.2 µM in the assay with T-47D breast. The GI50 was 35.1 µM and 48.9 µM in the assay on A549 NSCLC; 30 µM and 31.4 µM in the assay with SF-539 CNS; 23.1 µM and 23.4 µM with ACHN renal; 56.4 µM and 11.7 µM in the assay on TK-10 renal. Also, the TGI is 69 µM in the assay with RPMI-8226 leukemia; 400 µM and 293 µM with SK-MEL-28 melanoma; 163 µM in the assay with MDA-MB-231 breast; 319 µM and 274 µM with CCRF-CEM leukemia; 307 µM and 274 µM in the assay with EKVX NSCLC; 205 µM in the assay on T-47D breast. The TGI in the assay on A549 NSCLC is 338 µM and 240 µM; with SF-539 CNS, 266 µM and 154 µM; in the assay on ACHN renal it was 244 µM and 125 µM; in the assay with TK-10 renal, 183 µM and 104 µM.
As for `CC(C)C[C@H](NC(=O)CNC(=O)c1cc(Cl)ccc1Cl)B1OC(=O)CC(CC(=O)O)(C(=O)O)O1` (stereo not given in full), the GI50 is 0.0321 µM in the assay on RPMI-8226 leukemia; 0.0345 µM in the assay with SK-MEL-28 melanoma; 0.0532 µM in the assay with MDA-MB-231 breast; 0.0299 µM with CCRF-CEM leukemia; 0.369 µM in the assay on EKVX NSCLC; 0.0285 µM with T-47D breast. Besides, the GI50 is 0.11 µM in the assay on A549 NSCLC, 0.023 µM with SF-539 CNS, 0.0389 µM in the assay with ACHN renal and 0.0287 µM in the assay with TK-10 renal. For the same molecule, the TGI is 0.191 µM in the assay on SK-MEL-28 melanoma; 0.485 µM in the assay on MDA-MB-231 breast; more than 100 µM in the assay on CCRF-CEM leukemia; 30.8 µM in the assay with EKVX NSCLC; 0.0819 µM in the assay with T-47D breast; 20.6 µM in the assay with A549 NSCLC. Besides, the figures for the TGI in the assay on SF-539 CNS, in the assay on ACHN renal and with TK-10 renal were 0.0528 µM, more than 59.9 µM and 0.373 µM, respectively.
As to `CC1=C2[C@@H](CC1)[C@]1(C)O[C@@](c3ccccc3)(C[C@H]1OC(=O)CO)[C@H]2OC(=O)/C=C/c1ccccc1`, the GI50 with RPMI-8226 leukemia was 12.8 µM; with SK-MEL-28 melanoma, 18.1 µM; in the assay on MDA-MB-231 breast it was 19.2 µM; with CCRF-CEM leukemia, 16.9 µM; in the assay on EKVX NSCLC, 7.99 µM; with T-47D breast, 9.37 µM. Besides, the GI50 was 14.5 µM in the assay with A549 NSCLC, 16.9 µM with SF-539 CNS, 0.0446 µM in the assay on ACHN renal and 21.9 µM with TK-10 renal. Besides, the TGI with RPMI-8226 leukemia was found to be 43.7 µM; in the assay with SK-MEL-28 melanoma, 42.2 µM; with MDA-MB-231 breast it was 49.5 µM; with CCRF-CEM leukemia it was 56.9 µM; with EKVX NSCLC, 41.4 µM; with T-47D breast it was 48.8 µM. The TGI came out at 38 µM in the assay with A549 NSCLC, 35.8 µM with SF-539 CNS, 5.61 µM with ACHN renal and 49.3 µM with TK-10 renal.
Turning to `O=C1OCC2=C1C(c1ccccc1)c1cc3c(cc1N2)OCO3` (stereo not given), the GI50 was 0.0571 µM in the assay on RPMI-8226 leukemia; 0.0428 µM in the assay with SK-MEL-28 melanoma; 0.046 µM with MDA-MB-231 breast; 0.039 µM in the assay on CCRF-CEM leukemia; 2.29 µM in the assay on EKVX NSCLC; 5.14 µM with T-47D breast. Moreover, the GI50 in the assay on A549 NSCLC was 0.0375 µM; in the assay with SF-539 CNS, 0.0318 µM; with ACHN renal it was 0.0946 µM; with TK-10 renal, 11.4 µM. Further, the TGI was more than 100 µM in the assay on SK-MEL-28 melanoma; more than 74.7 µM in the assay with MDA-MB-231 breast; more than 100 µM in the assay with CCRF-CEM leukemia; more than 100 µM with EKVX NSCLC; more than 100 µM in the assay with T-47D breast; more than 56.4 µM with A549 NSCLC. Also, the TGI in the assay on SF-539 CNS was 9.3 µM; in the assay with ACHN renal it was 36.4 µM; in the assay with TK-10 renal, more than 100 µM.
With `CN(C)CCCn1c(=O)c2ccccc2c2ccccc21`, the GI50 was 26.9 µM with RPMI-8226 leukemia; 21.6 µM in the assay with SK-MEL-28 melanoma; 22.3 µM in the assay with MDA-MB-231 breast; 22 µM in the assay with CCRF-CEM leukemia; 13.6 µM with EKVX NSCLC; 25.2 µM in the assay with T-47D breast. Besides, the GI50 was 6.63 µM in the assay on A549 NSCLC, 11.8 µM in the assay on SF-539 CNS, 4.84 µM in the assay on ACHN renal and 20.3 µM in the assay on TK-10 renal. Besides, the TGI was 77.7 µM in the assay on RPMI-8226 leukemia; 46.9 µM in the assay with SK-MEL-28 melanoma; 62.7 µM in the assay on MDA-MB-231 breast; more than 100 µM in the assay on CCRF-CEM leukemia; 44.9 µM in the assay with EKVX NSCLC; more than 100 µM with T-47D breast. Also, the TGI is 49.5 µM in the assay with A549 NSCLC, 28.8 µM with SF-539 CNS, more than 100 µM in the assay with ACHN renal and more than 100 µM in the assay with TK-10 renal.

Source of the values: PubChem BioAssay (NCI).
